Assay results published in ChEMBL document CHEMBL5050834, “Cyclic trex1 inhibitors” (2021).

Assay: Inhibition of human TREX1 exonuclease activity using labeled DNA oligonucleotide as substrate incubated for 30 mins and measured after 45 mins by fluorescence assay

SMILES	IC50
CC(C)C[C@H](C(=O)N(C)Cc1ccc(Cl)c(Cl)c1)N1CCC(CCc2ccccc2)N2C[C@H](N)C[C@H]2C1=O (stereo not given in full)	< 1000 nM
CC(C)C[C@H](CNS(=O)(=O)c1ccc(Cl)c(Cl)c1)N1CCC(CCc2ccccc2)N2C[C@H](N)C[C@H]2C1=O (stereo not given in full)	< 1000 nM
CCOC(=O)CC[C@H](C(=O)NCc1cc(Cl)c(Cl)cc1OC)N1CCC(CCc2ccccc2)N2C[C@H](N)C[C@H]2C1=O (stereo not given in full)	< 1000 nM
N[C@@H]1C[C@H]2C(=O)N([C@@H]3CCCN(C(=O)c4ccc(Cl)c(Cl)c4)C3)CCC(CCc3ccccc3)N2C1 (stereo not given in full)	in the range around 10000 nM
N[C@@H]1C[C@H]2C(=O)N([C@H](CCC(=O)O)C(=O)N3CCC[C@H]3c3ccc(Cl)c(Cl)c3)CCC(CCc3ccccc3)N2C1 (stereo not given in full)	< 1000 nM
CC(C)C[C@H](C(=O)NCc1ccc(Cl)c(C(F)(F)F)c1)N1CCC(CCc2ccccc2)N2C[C@H](N)C[C@H]2C1=O (stereo not given in full)	< 1000 nM
COC(=O)CC[C@H](C(=O)NCc1ccc(Cl)c(Cl)c1)N1CCC(COc2ccc(F)cc2)N2C[C@H](N)C[C@H]2C1=O (mixture of isomers)	< 1000 nM
COc1c(CNC(=O)[C@@H](CCC(=O)O)N2CCC(CCc3ccccc3)N3C[C@H](N)C[C@H]3C2=O)ccc(Cl)c1Cl (stereo not given in full)	< 1000 nM
CN(Cc1ccc(Cl)c(Cl)c1)C(=O)[C@@H](CC#N)N1CCC(CCc2ccccc2)N2C[C@H](N)C[C@H]2C1=O (stereo not given in full)	< 1000 nM
N#CC[C@H](C(=O)NCc1ccc(Cl)c(Cl)n1)N1CCC(CCc2ccccc2)N2C[C@H](N)C[C@H]2C1=O (stereo not given in full)	< 1000 nM
Cc1nnc(CC[C@H](C(=O)NCc2ccc(Cl)c(Cl)c2F)N2CCC(CCc3ccccc3)N3C[C@H](N)C[C@H]3C2=O)[nH]1 (stereo not given in full)	< 1000 nM
N[C@@H]1C[C@H]2C(=O)N(c3cccn(Cc4ccc(Cl)c(Cl)c4)c3=O)CCC(CCc3ccccc3)N2C1 (stereo not given in full)	< 1000 nM
CCOc1c(CNC(=O)[C@@H](CCC(=O)O)N2CCC(CCc3ccccc3)N3C[C@H](N)C[C@H]3C2=O)ccc(Cl)c1Cl (stereo not given in full)	< 1000 nM
N#CC[C@H](C(=O)NCc1ccc(Cl)c(C(F)(F)F)c1)N1CCC(CCc2ccccc2)N2C[C@H](N)C[C@H]2C1=O (stereo not given in full)	< 1000 nM
CCOC(=O)CC[C@H](C(=O)NCc1cc(Cl)c(Cl)cc1F)N1CCC(CCc2ccccc2)N2C[C@H](N)C[C@H]2C1=O (stereo not given in full)	< 1000 nM
CC(C)Oc1c(CNC(=O)[C@@H](CCC#N)N2CCC(CCc3ccccc3)N3C[C@H](N)C[C@H]3C2=O)ccc(Cl)c1Cl (stereo not given in full)	< 1000 nM
CCOC(=O)CC[C@H](C(=O)NCc1ccc(Cl)c(Cl)c1)N1CCC(CCc2ccccc2)N2C[C@H](N)C[C@H]2C1=O (stereo not given in full)	< 1000 nM
COC(=O)CC[C@H](C(=O)NS(=O)(=O)c1ccc(Cl)c(Cl)c1)N1CCC(CCc2ccccc2)N2C[C@H](N)C[C@H]2C1=O (stereo not given in full)	< 1000 nM
N#CC[C@H](C(=O)NCc1ccc(Cl)cn1)N1CCC(CCc2ccccc2)N2C[C@H](N)C[C@H]2C1=O (stereo not given in full)	< 1000 nM
N[C@@H]1C[C@H]2C(=O)N([C@H](CCNC(=O)C3CC3)C(=O)NCc3ccc(Cl)c(Cl)c3)CCC(CCc3ccccc3)N2C1 (stereo not given in full)	< 1000 nM
N[C@@H]1C[C@H]2C(=O)N([C@H](CCC(=O)O)C(=O)NCc3cc(Cl)c(Cl)cn3)CCC(CCc3ccccc3)N2C1 (stereo not given in full)	< 1000 nM
N#CCC[C@H](C(=O)NCc1ccc(Cl)c(Cl)c1F)N1CCC(CCc2ccccc2)N2C[C@H](N)C[C@H]2C1=O (stereo not given in full)	< 1000 nM

SMILES	IC50
NC(=O)CC[C@H](C(=O)NCc1ccc(Cl)c(Cl)c1F)N1CCC(CCc2ccccc2)N2C[C@H](N)C[C@H]2C1=O (stereo not given in full)	< 1000 nM
N#CCC[C@H](C(=O)NCc1ccc(Cl)c(Cl)[n+]1[O-])N1CCC(CCc2ccccc2)N2C[C@H](N)C[C@H]2C1=O (stereo not given in full)	< 1000 nM
NC(=O)C[C@H](C(=O)NCc1ccc(Cl)c(Cl)c1)N1CCC(CCc2ccccc2)N2C[C@H](N)C[C@H]2C1=O (stereo not given in full)	< 1000 nM
CCN(CC)C(=O)COC(=O)CC[C@H](C(=O)NCc1ccc(Cl)c(Cl)c1)N1CCC(CCc2ccccc2)N2C[C@H](N)C[C@H]2C1=O (stereo not given in full)	< 1000 nM
CC(C)Oc1c(CNC(=O)[C@@H](CCc2nnn[nH]2)N2CCC(CCc3ccccc3)N3C[C@H](N)C[C@H]3C2=O)ccc(Cl)c1Cl (stereo not given in full)	< 1000 nM
COc1c(CNC(=O)[C@@H](CCc2nnn[nH]2)N2CCC(CCc3ccccc3)N3C[C@H](N)C[C@H]3C2=O)ccc(Cl)c1Cl (stereo not given in full)	< 1000 nM
Cn1c(Cl)ccc(CNC(=O)[C@@H](CCC(=O)O)N2CCC(CCc3ccccc3)N3C[C@H](N)C[C@H]3C2=O)c1=O (stereo not given in full)	< 1000 nM
N[C@@H]1C[C@H]2C(=O)N([C@H]3CCCN(C(=O)c4ccc(Cl)c(Cl)c4)C3)CCC(CCc3ccccc3)N2C1 (mixture of isomers)	in the range around 10000 nM
CC(C)Oc1c(CNC(=O)[C@@H](CCC(=O)O)N2CCC(CCc3ccccc3)N3C[C@H](N)C[C@H]3C2=O)ccc(Cl)c1Cl (stereo not given in full)	< 1000 nM
N[C@@H]1C[C@H]2C(=O)N([C@H](CCC(=O)O)C(=O)NCc3ccc(Cl)c(Cl)c3)CCC(COc3ccc(Cl)cc3)N2C1 (stereo not given in full)	< 1000 nM
N#CC[C@H](C(=O)NCc1ccc(Cl)c(Cl)c1)N1CCC(CCc2ccccc2)N2C[C@H](N)C[C@H]2C1=O (stereo not given in full)	< 1000 nM
CCOC(=O)CC[C@H](C(=O)N1CCOC[C@H]1c1ccc(Cl)c(Cl)c1)N1CCC(CCc2ccccc2)N2C[C@H](N)C[C@H]2C1=O (stereo not given in full)	< 1000 nM
N[C@@H]1C[C@H]2C(=O)N([C@H](CCC(=O)O)C(=O)N3CCOC[C@H]3c3ccc(Cl)c(Cl)c3)CCC(CCc3ccccc3)N2C1 (stereo not given in full)	< 1000 nM
COc1ccc(CNC(=O)[C@@H](CC(C)C)N2CCC(CCc3ccccc3)N3C[C@H](N)C[C@H]3C2=O)cc1Cl (stereo not given in full)	< 1000 nM
NC(=O)C[C@H](C(=O)NCc1ccc(Cl)c(Cl)n1)N1CCC(CCc2ccccc2)N2C[C@H](N)C[C@H]2C1=O (stereo not given in full)	< 1000 nM
CNC(=O)CC[C@H](C(=O)NCc1ccc(Cl)c(Cl)c1)N1CCC(CCc2ccccc2)N2C[C@H](N)C[C@H]2C1=O (stereo not given in full)	< 1000 nM
CC(C)C[C@H](C(=O)N[C@@H](C)c1ccccc1)N1CCC(CCc2ccccc2)N2C[C@H](N)C[C@H]2C1=O (stereo not given in full)	in the range around 1000 nM
N[C@@H]1C[C@H]2C(=O)N([C@@H](CCC(=O)O)C(=O)NCc3ccc(Cl)c(Cl)c3)CCC(CCc3ccccc3)N2C1 (stereo not given in full)	< 1000 nM
CC(C)C[C@H](C(=O)NCc1ccc(Cl)c(F)c1)N1CCC(CCc2ccccc2)N2C[C@H](N)C[C@H]2C1=O (stereo not given in full)	< 1000 nM
NC(=O)CC[C@H](C(=O)N1Cc2cc(Cl)c(Cl)cc2C1)N1CCC(CCc2ccccc2)N2C[C@H](N)C[C@H]2C1=O (stereo not given in full)	in the range around 10000 nM
N[C@@H]1C[C@H]2C(=O)N([C@H](CCC(=O)O)C(=O)N3CCCC[C@H]3c3ccc(Cl)c(Cl)c3)CCC(CCc3ccccc3)N2C1 (stereo not given in full)	< 1000 nM
CC(C)OC(=O)CC[C@H](C(=O)NCc1ccc(Cl)c(Cl)c1)N1CCC(CCc2ccccc2)N2C[C@H](N)C[C@H]2C1=O (stereo not given in full)	< 1000 nM

SMILES	IC50
N[C@@H]1C[C@H]2C(=O)N([C@H](CCC(=O)O)C(=O)NCc3ccc(Cl)c(Cl)c3)CCC(COc3cnccn3)N2C1 (stereo not given in full)	in the range around 1000 nM
N#CCC[C@H](C(=O)NCc1ccc(Cl)c(Cl)c1)N1CCC(COc2cccc(F)c2)N2C[C@H](N)C[C@H]2C1=O (stereo not given in full)	< 1000 nM
N[C@@H]1C[C@H]2C(=O)N([C@H](CCC(=O)O)C(=O)NCc3ccc(Cl)c(Cl)c3)CCC(COc3cccc(F)c3)N2C1 (stereo not given in full)	< 1000 nM
CC(C)C[C@H](C(=O)NCc1ccc(C(F)(F)F)c(F)c1)N1CCC(CCc2ccccc2)N2C[C@H](N)C[C@H]2C1=O (stereo not given in full)	< 1000 nM
N[C@@H]1C[C@H]2C(=O)N([C@H](CCNS(=O)(=O)C3CC3)C(=O)NCc3ccc(Cl)c(Cl)c3)CCC(CCc3ccccc3)N2C1 (stereo not given in full)	< 1000 nM
CC(C)C[C@H](CNC(=O)c1ccc(Cl)c(Cl)c1)N1CCC(CCc2ccccc2)N2C[C@H](N)C[C@H]2C1=O (stereo not given in full)	in the range around 1000 nM
Cc1ccc(CNC(=O)[C@@H](CC(C)C)N2CCC(CCc3ccccc3)N3C[C@H](N)C[C@H]3C2=O)cc1Cl (stereo not given in full)	< 1000 nM
COc1cc(Cl)c(Cl)cc1CNC(=O)[C@@H](CCC(=O)O)N1CCC(CCc2ccccc2)N2C[C@H](N)C[C@H]2C1=O (stereo not given in full)	< 1000 nM
CCOC(=O)CC[C@H](C(=O)NCc1ccc(Cl)c(Cl)c1)N1CCC(CCc2ccccc2)N2C[C@H](NC(=O)OCC)C[C@H]2C1=O (stereo not given in full)	in the range around 10000 nM
N[C@@H]1C[C@H]2C(=O)N([C@@H]3CCCN(S(=O)(=O)c4ccc(Cl)c(Cl)c4)C3)CCC(CCc3ccccc3)N2C1 (stereo not given in full)	< 1000 nM
CC(C)C[C@H](C(=O)NCc1ccc(Cl)c(Cl)c1)N1CCC(CS(=O)(=O)c2ccccc2)N2C[C@H](N)C[C@H]2C1=O (stereo not given in full)	in the range around 1000 nM
N[C@@H]1C[C@H]2C(=O)N([C@H](CCC(=O)O)C(=O)NCc3ccc(Cl)cn3)CCC(CCc3ccccc3)N2C1 (stereo not given in full)	< 1000 nM
CCOC(=O)CC[C@H](C(=O)NCc1ccc(Cl)c(Cl)c1OC)N1CCC(CCc2ccccc2)N2C[C@H](N)C[C@H]2C1=O (stereo not given in full)	< 1000 nM
N[C@@H]1C[C@H]2C(=O)N([C@H](CSc3ccccc3O)C(=O)NCc3ccc(Cl)c(Cl)c3)CCC(CCc3ccccc3)N2C1 (stereo not given in full)	< 1000 nM
CC(C)C[C@H](C(=O)NCc1ccc(Cl)c(Cl)c1)N1CCC(C[S+]([O-])c2ccccc2)N2C[C@H](N)C[C@H]2C1=O (stereo not given in full)	< 1000 nM
N[C@@H]1C[C@H]2C(=O)N([C@H](CCC(=O)O)C(=O)NCc3ccc(Cl)c(C(F)(F)F)c3)CCC(CCc3ccccc3)N2C1 (stereo not given in full)	< 1000 nM
N[C@@H]1C[C@H]2C(=O)N([C@H](CCC(=O)NO)C(=O)NCc3ccc(Cl)c(Cl)c3)CCC(CCc3ccccc3)N2C1 (stereo not given in full)	< 1000 nM
CONC(=O)CC[C@H](C(=O)NCc1ccc(Cl)c(Cl)c1)N1CCC(CCc2ccccc2)N2C[C@H](N)C[C@H]2C1=O (stereo not given in full)	< 1000 nM
N#CC[C@H](C(=O)N1CCc2c(ccc(Cl)c2Cl)C1)N1CCC(CCc2ccccc2)N2C[C@H](N)C[C@H]2C1=O (stereo not given in full)	in the range around 1000 nM
N[C@@H]1C[C@H]2C(=O)N([C@H](CCC(=O)O)C(=O)NCc3ccc(Cl)c(Cl)n3)CCC(CCc3ccccc3)N2C1 (stereo not given in full)	< 1000 nM
N[C@@H]1C[C@H]2C(=O)N([C@H](CCC(=O)O)C(=O)NCc3cc(Cl)c(Cl)cc3F)CCC(CCc3ccccc3)N2C1 (stereo not given in full)	< 1000 nM
